The values below come from ChEMBL document CHEMBL1127066, “Discovery and structure-activity relationship of a series of 1-carba-1-dethiacephems exhibiting activity against methicillin-resistant Staphylococcus aureus” (J Med Chem, 1993).

Holding throughout (format): functional
Experiment [1] relates to Klebsiella. The experiment in a line: In vitro antimicrobial activity against Klebsiella X26 strain.
The subject of experiment [2] is Pseudomonas aeruginosa. The experiment is described as follows: In vitro antimicrobial activity against Pseudomonas X239 strain.
The test system of experiment [3] is Streptococcus pneumoniae. The experiment in a line: In vitro antimicrobial activity against Streptococcus pneumoniae PARK strain.
Experiment [4] relates to Escherichia coli. The experiment is described as follows: In vitro evaluation of antimicrobial activity against Escherichia coli EC14 strain.
Experiment [5] concerns Pseudomonas aeruginosa. The experiment is described as follows: Antimicrobial activity against Pseudomonas PS18 strain.
Experiment [6] has as its system Haemophilus influenzae. The experiment is described as follows: In vitro antimicrobial activity against Haemophilus influenzae C.L. strain.
For experiment [7], the system named is Staphylococcus aureus. The experiment in a line: In vitro antimicrobial activity against Staphylococcus aureus X1.1 strain.
Experiment [8] relates to Staphylococcus epidermidis. The experiment in a line: In vitro antimicrobial activity against Staphylococcus epidermidis 222 strain.
Experiment [9] has as its system Staphylococcus epidermidis. The experiment in a line: In vitro antimicrobial activity against Staphylococcus epidermidis 270 strain.
Experiment [10] has as its system Staphylococcus aureus. The experiment in a line: In vitro antimicrobial activity against Staphylococcus aureus X400 strain.
Experiment [11] concerns Staphylococcus aureus. The experiment is described as follows: In vitro antimicrobial activity against Staphylococcus aureus S13E strain.
Experiment [12] concerns Enterobacter cloacae. The experiment in a line: In vitro evaluation of antimicrobial activity against Enterobacter cloacae EB5 strain.

With `C[n+]1ccc2sc(SC3=C(C(=O)[O-])N4C(=O)[C@@H]([N-]C(=O)/C(=N/OCCF)c5csc(N)n5)[C@H]4CC3)nc2c1.[Na+]`, the MIC amounted to 0.03 µg/mL in experiment [1]; 32 µg/mL in experiment [2]; 0.15 µg/mL in experiment [3]; 0.25 µg/mL in [4]; 32 µg/mL in experiment [5]; 0.06 µg/mL in [6]. The MIC in experiment [7] was 2 µg/mL; in experiment [8], 2 µg/mL; in experiment [9] it was 8 µg/mL; in experiment [10] it was 128 µg/mL; in experiment [11] it was 16 µg/mL; in experiment [12] it was 4 µg/mL.

For `Nc1nc(/C(=N\OCCF)C(=O)N[C@@H]2C(=O)N3C(C(=O)[O-])=C(Sc4nc5c(N)ncnc5s4)CC[C@H]23)cs1.[Na+]`, the MIC in [1] was 0.03 µg/mL; in [2], > 128 µg/mL; in experiment [3], < 0.008 µg/mL; in experiment [4], 0.25 µg/mL; in experiment [5], 64 µg/mL; in [6] it was 0.03 µg/mL. The MIC in experiment [7] came out at 0.125 µg/mL; in experiment [8], 0.5 µg/mL; in [9], 2 µg/mL; in experiment [10], 32 µg/mL; in [11], 16 µg/mL; in experiment [12], 1 µg/mL.

As for `Cn1nnnc1SC1=C(C(=O)[O-])N2C(=O)[C@@H](NC(=O)/C(=N/OCCF)c3csc(N)n3)[C@H]2CC1.[Na+]`, the MIC in experiment [1] is < 0.008 µg/mL; in [2] it was 16 µg/mL; in experiment [3], 0.015 µg/mL; in experiment [4], 0.06 µg/mL; in [5], > 128 µg/mL; in experiment [6] it was 0.015 µg/mL. Further, the MIC was 0.5 µg/mL in experiment [7]; 2 µg/mL in [8]; 4 µg/mL in experiment [9]; > 128 µg/mL in experiment [10]; 128 µg/mL in [11]; 0.5 µg/mL in experiment [12].

On to `Nc1nc(/C(=N\OCCF)C(=O)N[C@@H]2C(=O)N3C(C(=O)[O-])=C(Sc4snc5ccccc45)CC[C@H]23)cs1.[Na+]`, for which the MIC is 0.03 µg/mL in experiment [1]; 32 µg/mL in [2]; < 0.008 µg/mL in experiment [3]; 0.25 µg/mL in experiment [4]; 16 µg/mL in experiment [5]; 0.03 µg/mL in experiment [6]. For the same molecule, the MIC in experiment [7] is 0.125 µg/mL; in experiment [8], 0.5 µg/mL; in [9], 2 µg/mL; in [10], 64 µg/mL; in [11], 32 µg/mL; in [12], 0.5 µg/mL.

With `Nc1nc(/C(=N\OCCF)C(=O)N[C@@H]2C(=O)N3C(C(=O)[O-])=C(Sc4nc5cccnc5s4)CC[C@H]23)cs1.[Na+]`, the MIC in experiment [1] is 0.03 µg/mL; in [2], > 128 µg/mL; in [3] it was < 0.008 µg/mL; in experiment [4], 0.25 µg/mL; in [5], 64 µg/mL; in experiment [6], 0.03 µg/mL. Besides, the MIC in experiment [7] was determined as 0.25 µg/mL; in experiment [8] it was 1 µg/mL; in experiment [9], 4 µg/mL; in experiment [10] it was 16 µg/mL; in [11], 8 µg/mL; in [12], 2 µg/mL.

Consider `Nc1nc(/C(=N\OCCF)C(=O)N[C@@H]2C(=O)N3C(C(=O)[O-])=C(Sc4nc5ccccc5o4)CC[C@H]23)cs1.[Na+]`, for which the MIC in [1] was 0.015 µg/mL; in [2], 32 µg/mL; in experiment [3], < 0.008 µg/mL; in experiment [4] it was 0.25 µg/mL; in experiment [5], 32 µg/mL; in experiment [6] it was 0.03 µg/mL. The MIC in [7] was determined as 0.125 µg/mL; in [8], 1 µg/mL; in experiment [9], 2 µg/mL; in experiment [10], 64 µg/mL; in experiment [11], 2 µg/mL; in experiment [12] it was 1 µg/mL.

In the case of `Nc1nc(/C(=N\OCCF)C(=O)N[C@@H]2C(=O)N3C(C(=O)[O-])=C(Sc4nc(-c5cccnc5)cs4)CC[C@H]23)cs1.[Na+]`, the MIC was 0.03 µg/mL in [1]; > 128 µg/mL in [2]; < 0.008 µg/mL in experiment [3]; 0.25 µg/mL in [4]; 64 µg/mL in [5]; 0.015 µg/mL in experiment [6]. Besides, the MIC was found to be 0.25 µg/mL in [7]; 0.5 µg/mL in experiment [8]; 2 µg/mL in experiment [9]; 32 µg/mL in experiment [10]; 8 µg/mL in experiment [11]; 2 µg/mL in experiment [12].

As to `Nc1nc(/C(=N\OCCF)C(=O)N[C@@H]2C(=O)N3C(C(=O)[O-])=C(Sc4nc(-c5ccncc5)cs4)CC[C@H]23)cs1.[Na+]`, the MIC was 0.03 µg/mL in experiment [1]; > 128 µg/mL in experiment [2]; < 0.008 µg/mL in experiment [3]; 0.25 µg/mL in experiment [4]; > 128 µg/mL in [5]; 0.03 µg/mL in experiment [6]. Besides, the MIC in experiment [7] amounted to 0.125 µg/mL; in experiment [8] it was 0.5 µg/mL; in experiment [9], 2 µg/mL; in experiment [10] it was 32 µg/mL; in [11], 8 µg/mL; in [12], 2 µg/mL.

For `Nc1nc(/C(=N\OCCF)C(=O)N[C@@H]2C(=O)N3C(C(=O)[O-])=C(Sc4nc(-c5ccccc5)cs4)CC[C@H]23)cs1.[Na+]`, the MIC in experiment [1] was 0.015 µg/mL; in experiment [2] it was 8 µg/mL; in experiment [3], < 0.008 µg/mL; in [4], 0.25 µg/mL; in experiment [5] it was 64 µg/mL; in experiment [6], 0.03 µg/mL. The MIC in experiment [7] is 0.125 µg/mL; in experiment [8] it was 0.25 µg/mL; in experiment [9], 0.5 µg/mL; in [10], 4 µg/mL; in [11], 4 µg/mL; in [12], 1 µg/mL.

With `Nc1nc(/C(=N\OCCF)C(=O)N[C@@H]2C(=O)N3C(C(=O)[O-])=C(Sc4ccncc4)CC[C@H]23)cs1.[Na+]`, the MIC in [1] is 0.015 µg/mL; in experiment [2] it was 16 µg/mL; in [3], < 0.008 µg/mL; in [4] it was 0.06 µg/mL; in experiment [5] it was 64 µg/mL; in [6], 0.015 µg/mL. The MIC in experiment [7] amounted to 0.5 µg/mL; in experiment [8], 1 µg/mL; in experiment [9], 2 µg/mL; in experiment [10] it was 64 µg/mL; in [11], 32 µg/mL; in [12], 0.5 µg/mL.

`Cc1csc(SC2=C(C(=O)[O-])N3C(=O)[C@@H](NC(=O)/C(=N/OCCF)c4csc(N)n4)[C@H]3CC2)n1.[Na+]`: the MIC in experiment [1] was < 0.008 µg/mL; in experiment [2], 64 µg/mL; in experiment [3], < 0.008 µg/mL; in experiment [4], 0.25 µg/mL; in experiment [5], 32 µg/mL; in [6] it was < 0.008 µg/mL. Besides, the MIC amounted to 0.5 µg/mL in [7]; 0.5 µg/mL in experiment [8]; 4 µg/mL in experiment [9]; 64 µg/mL in [10]; 4 µg/mL in experiment [11]; 2 µg/mL in experiment [12].

Consider `Cc1cnc(SC2=C(C(=O)[O-])N3C(=O)[C@@H](NC(=O)/C(=N/OCCF)c4csc(N)n4)[C@H]3CC2)s1.[Na+]`, for which the MIC was 0.03 µg/mL in experiment [1]; 64 µg/mL in experiment [2]; < 0.008 µg/mL in experiment [3]; 0.5 µg/mL in experiment [4]; 32 µg/mL in [5]; < 0.008 µg/mL in experiment [6]. The MIC in experiment [7] was found to be 0.5 µg/mL; in [8], 1 µg/mL; in [9], 4 µg/mL; in [10], 128 µg/mL; in experiment [11] it was 32 µg/mL; in experiment [12], 2 µg/mL.

Consider `Nc1nc(/C(=N\OCCF)C(=O)N[C@@H]2C(=O)N3C(C(=O)[O-])=C(Sc4nc5cncnc5s4)CC[C@H]23)cs1.[Na+]`, for which the MIC in [1] is 0.03 µg/mL; in experiment [2], 128 µg/mL; in experiment [3], < 0.008 µg/mL; in experiment [4], 0.25 µg/mL; in experiment [5], 128 µg/mL; in experiment [6], 0.03 µg/mL. For the same molecule, the MIC in experiment [7] was 0.125 µg/mL; in experiment [8] it was 0.5 µg/mL; in experiment [9] it was 2 µg/mL; in [10], 16 µg/mL; in experiment [11], 8 µg/mL; in [12], 2 µg/mL.

Take `CCOC(=O)c1csc(SC2=C(C(=O)[O-])N3C(=O)[C@@H](NC(=O)/C(=N/OCCF)c4csc(N)n4)[C@H]3CC2)n1.[Na+]`: the MIC in [1] is 0.06 µg/mL; in experiment [2], > 128 µg/mL; in experiment [3], < 0.008 µg/mL; in experiment [4] it was 0.5 µg/mL; in [5] it was 128 µg/mL; in experiment [6], 0.06 µg/mL. Moreover, the MIC in experiment [7] amounted to 1 µg/mL; in [8], 2 µg/mL; in experiment [9], 2 µg/mL; in experiment [10] it was 32 µg/mL; in [11], 16 µg/mL; in [12] it was 4 µg/mL.

Take `Nc1nc(/C(=N\OCCF)C(=O)N[C@@H]2C(=O)N3C(C(=O)[O-])=C(Sc4nc5ccccc5[nH]4)CC[C@H]23)cs1.[Na+]`: the MIC in [1] is 0.015 µg/mL; in experiment [2], 32 µg/mL; in experiment [3], < 0.008 µg/mL; in [4], 0.125 µg/mL; in experiment [5], 32 µg/mL; in experiment [6], 0.015 µg/mL. In addition, the MIC turned out to be 2 µg/mL in experiment [7]; 2 µg/mL in experiment [8]; 8 µg/mL in experiment [9]; 128 µg/mL in experiment [10]; 16 µg/mL in [11]; 1 µg/mL in experiment [12].

For `Nc1nc(/C(=N\OCCF)C(=O)N[C@@H]2C(=O)N3C(C(=O)[O-])=C(Sc4nccs4)CC[C@H]23)cs1.[Na+]`, the MIC in experiment [1] was < 0.008 µg/mL; in [2], 128 µg/mL; in [3] it was < 0.008 µg/mL; in experiment [4], 0.125 µg/mL; in experiment [5], 32 µg/mL; in experiment [6], < 0.008 µg/mL. Also, the MIC in [7] turned out to be 0.25 µg/mL; in experiment [8] it was 0.5 µg/mL; in experiment [9] it was 4 µg/mL; in experiment [10] it was 64 µg/mL; in experiment [11], 16 µg/mL; in [12], 1 µg/mL.
